One may read the mortality as the share of the test organisms that died.

What all share (format): in vivo
One experiment concerns Myzus persicae. The experiment is described as follows: Myzus persicae oral test. The settings on record: 120 h, after 5 days. How it is done: Solvent: 100 parts by weight acetone
Afterwards the plates are sealed with parafilm through which a mixed population of the green peach aphid (Myzus persicae) can suck on the compound preparation.
After 5 days mortality in % is determined. 100% means all aphids have been killed and 0% means none of the aphids have been killed.

The subject of another experiment is Diabrotica balteata. The experiment is described as follows: Diabrotica balteata spray test. The settings on record: 168 h, wheat seeds, after 7 days, read-out: activity (efficacy, seedlings grown); for pest or weed control at 160 µg/disc, 500 g/ha: 500 g/ha (=160 μg/well). The essentials:
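Efficacy was read 7 days after infesting each unit with 10–20 banded cucumber beetle larvae, as % of seedlings growing like untreated, uninfested controls. Before infestation, wheat seeds germinated 1 day on agar (5 per well) were sprayed with the active ingredient. The active was formulated in acetone/DMF and diluted in water containing emulsifier.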

The next experiment deals with Spodoptera frugiperda. The experiment is described as follows: Spodoptera frugiperda spray test. The settings on record: in Zea mays, 168 h, read-out: activity (mortality). The essentials:
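Larvae of fall armyworm placed on dried maize leaf sections previously sprayed with emulsified compound (acetone/DMF solvent, water with 1000 ppm emulsifier). Percent of caterpillars killed recorded on day 7, 0–100% scale.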

In experiment [1] the test system is Rhipicephalus microplus (strain Parkhurst, resistant against synthetic pyrethroids). The experiment is described as follows: Rhipicephalus microplus in-vitro contact test, larval cattle tick (BOOPMI Contact). The conditions noted are these: 5 μg/cm^2 (=500 g/ha), after 48 hours, read-out: activity (efficacy, larvae dead or moribund). The essentials: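 Efficacy, expressed as percentage of larvae dead or moribund, is judged by negative geotactic behaviour 48 h after larvae (20-50 per tube) enter tubes whose inner walls carry a dried acetone film of compound, 5 μg/cm² at 900 ppm. Incubation: horizontal, 27 °C, 85% relative humidity.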

Experiment [2] has as its system Aedes aegypti strain MONHEIM. The experiment is described as follows: Aedes aegypti test (AEDSAE surface treatment & contact assay). The settings on record: surface concentration 4 mg/m^2, glazed tile, 30 minutes exposure, 24 hours after contact, read-out: efficacy (mortality). How it is done:
Aedes aegypti Test (AEDSAE Surface Treatment & Contact Assay)
Solvent: Aceton+2000 ppm rapeseed oil methyl ester (RME)
In order to produce a sufficient, active ingredient containing solution it is necessary to solve the test compound in the solvent-mix (acetone at 2 mg/mL/RME 2000 ppm). This solution is pipetted onto a glazed tile and after evaporation of the acetone, adult mosquitoes of the species Aedes aegypti strain MONHEIM are placed onto the dried surface. The exposure time is 30 minutes.
Mortality in percent (%) is determined 24 hours after contact of the insects to the treated surface. 100% mortality means that all tested insects are dead, whereas 0% means that no insect died.

The subject of a further experiment is Boophilus microplus. The experiment is described as follows: Boophilus microplus injection test (BOOPMI Injection). The settings on record: Rhipicephalus microplus, 168 h, injection into adult engorged female ticks, egg deposition after 7 days, read-out: activity (efficacy, infertile eggs); for pest or weed control at 0.004 mg: 4 μg/animal; for pest or weed control at 0.02 mg: 20 μg/animal. The essentials: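 Adult engorged female ticks (5 per group) injected into the abdomen with 1 μL compound in DMSO, then held in a climate chamber. Fertile egg deposition scored after 7 days, with unclear eggs kept until hatching (~42 days). Efficacy 100% = all eggs infertile, 0% = all fertile.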

In experiment [3] the test system is Ctenocephalides felis. The experiment is described as follows: Ctenocephalides felis oral test (CTECFE). The conditions noted are these: 48 h, 100 ppm in cattle blood, after 2 days. In a few lines:
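About 20 adult unfed fleas fed through parafilm on cattle blood held at 37° C and dosed with compound from a DMSO concentrate; flea chamber at room temperature. Percent mortality scored after 2 days.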

Experiment [4] relates to Ctenocephalides felis. The experiment is described as follows: Ctenocephalides felis in-vitro contact test, adult cat flea. The conditions noted are these: 5 μg/cm^2 (=500 g/ha), after 48 hours, read-out: activity (efficacy, fleas dead or moribund). How it is done: Ctenocephalides felis—in-Vitro Contact Tests Adult Cat Flea
9 mg compound is solved in 1 ml acetone and diluted with acetone to the desired concentration. […] the test solution is filled in 25 ml glass test tubes and homogeneously distributed on the inner walls by rotation and tilting on a shaking device (2 h at 30 rpm). With a compound concentration of 900 ppm, an inner surface of 44.7 cm^2 and a homogeneous distribution, a dose of 5 μg/cm^2 is achieved.
After the solvent has evaporated, each test tube is filled with 5-10 adult cat fleas (Ctenocephalides felis), closed with a perforated lid and incubated in a lying position at room temperature and relative humidity. After 48 hours efficacy is determined. The fleas are patted on the ground of the tubes and are incubated on a heating plate at 45-50° C. for at most 5 minutes Immotile or uncoordinated moving fleas, which are not able to escape the heat by climbing upwards, are marked as dead or moribund.
An efficacy of 100% means all fleas are dead or moribund; 0% means no fleas are dead or moribund.

A further experiment has as its system Rhipicephalus sanguineus. The experiment is described as follows: Rhipicephalus sanguineus in-vitro contact test, adult brown dog ticks (RHIPSA Contact). The conditions noted are these: 5 μg/cm^2 (=500 g/ha), after 48 hours, read-out: activity (efficacy, ticks dead or moribund). How it is done:
Rhipicephalus sanguineus—in-Vitro Contact Tests with Adult Brown Dog Ticks (RHIPSA Contact)
9 mg compound is solved in 1 ml acetone and diluted with acetone to the desired concentration. 250 μl_, of the test solution is filled in 25 ml glass test tubes and homogeneously distributed on the inner walls by rotation and tilting on a shaking device (2 h at 30 rpm). With a compound concentration of 900 ppm, an inner surface of 44.7 cm^2 and a homogeneous distribution, a dose of 5 μg/cm^2 is achieved.
After the solvent has evaporated, each test tube is filled with 5-10 adult brown dog ticks (Rhipicephalus sanguineus), closed with a perforated lid and incubated in a lying position at room temperature and relative humidity. After 48 hours efficacy is determined. The ticks are patted on the ground of the tubes and are incubated on a heating plate at 45-50° C. for at most 5 minutes Immotile or uncoordinated moving ticks, which are not able to escape the heat by climbing upwards, are marked as dead or moribund.
An efficacy of 100% means all ticks are dead or moribund; 0% means no ticks are dead or moribund.

In the experiment with Myzus persicae, `C[C@H](Nc1nc2cc(C(F)(F)F)cc(Cl)c2o1)c1ncnn1-c1ncccn1` [Example I-006] gave a mortality at 4 ppm of 90%. For the same molecule, the pest or weed control at 160 µg/disc, 500 g/ha in the experiment on Diabrotica balteata stood at 100%. In the experiment on Spodoptera frugiperda, the mortality at 100 g/ha is 100% and the mortality at 500 g/ha was 100%. Further, the pest or weed control at 5 µg/cm2 in experiment [1] came to 100%. The mortality at 4 mg/m2 in [2] lay within 85 to 100%. Further, in the experiment with Boophilus microplus, the pest or weed control at 0.004 mg amounted to 100% and the pest or weed control at 0.02 mg is 100%. In addition, in the experiment on Ctenocephalides felis [3], the mortality at 100 ppm turned out to be 100%. Also, in the experiment with Ctenocephalides felis [4], the pest or weed control at 5 µg/cm2, 5 µg/cm2 was 100%.

With `Cc1nc([C@H](C)Nc2nc3cc(C(F)(F)F)c(Cl)cc3o2)n(-c2ncccn2)n1` [Example I-011], the mortality at 4 ppm with Myzus persicae was determined as 90%. Further, in the experiment on Diabrotica balteata, the pest or weed control at 100 g/ha stood at 100% and the pest or weed control at 160 µg/disc, 500 g/ha is 100%. In the experiment on Spodoptera frugiperda, the mortality at 500 g/ha was 100%. Moreover, the pest or weed control at 5 µg/cm2 in [1] came out at 80%. Besides, the pest or weed control at 5 µg/cm2, 5 µg/cm2 in the experiment on Rhipicephalus sanguineus was found to be 80%. Moreover, in the experiment with Boophilus microplus, the pest or weed control at 0.004 mg was 100% and the pest or weed control at 0.02 mg was 100%. Besides, the mortality at 100 ppm in the experiment on Ctenocephalides felis [3] was 100%.

Take `C[C@H](Nc1nc2cc(C(F)(F)F)cc(Cl)c2o1)c1ncnn1-c1ncc(Cl)cn1` [Example I-036, 7-chloro-N-{(1S)-1-[1-(5-chloropyrimidin-2-yl)-1H-1,2,4-triazol-5-yl]ethyl}-5-(trifluoromethyl)-1,3-benzoxazol-2-amine]: the pest or weed control at 100 g/ha in the experiment on Diabrotica balteata amounted to 100%. In the experiment on Spodoptera frugiperda, the mortality at 100 g/ha is 100%. The pest or weed control at 5 µg/cm2 in experiment [1] stood at 100%. For the same molecule, in the experiment on Rhipicephalus sanguineus, the pest or weed control at 5 µg/cm2, 5 µg/cm2 amounted to 100%. For the same molecule, in the experiment with Boophilus microplus, the pest or weed control at 0.004 mg was 100% and the pest or weed control at 0.02 mg was determined as 100%. In addition, in the experiment with Ctenocephalides felis [3], the mortality at 100 ppm was found to be 100%. In addition, in the experiment with Ctenocephalides felis [4], the pest or weed control at 5 µg/cm2, 5 µg/cm2 is 80%.

In the case of `Cc1cnc(-n2ncnc2[C@H](C)Nc2nc3cc(C(F)(F)F)cc(Cl)c3o2)nc1` [Example I-040, 7-Chlor-N-{(1S)-1-[1-(5-methylpyrimidin-2-yl)-1H-1,2,4-triazol-5-yl]ethyl}-5-(trifluormethyl)-1,3-benzoxazol-2-amin], the pest or weed control at 100 g/ha in the experiment with Diabrotica balteata worked out at 100%. In addition, in experiment [1], the pest or weed control at 5 µg/cm2 came out at 90%. In addition, the pest or weed control at 5 µg/cm2, 5 µg/cm2 in the experiment with Rhipicephalus sanguineus and in the experiment on Ctenocephalides felis [4] was 100% throughout. Moreover, in the experiment with Boophilus microplus, the pest or weed control at 0.004 mg is 100%. Moreover, the mortality at 100 ppm in the experiment with Ctenocephalides felis [3] came to 100%.

Consider `C[C@H](Nc1nc2cc(C(F)(F)F)cc(Cl)c2o1)c1ncnn1-c1ncc(F)cn1` [Example I-045, 7-Chlor-N-{(1S)-1-[1-(5-fluorpyrimidin-2-yl)-1H-1,2,4-triazol-5-yl]ethyl}-5-(trifluormethyl)-1,3-benzoxazol-2-amin], for which, in the experiment on Diabrotica balteata, the pest or weed control at 100 g/ha turned out to be 100% and the pest or weed control at 160 µg/disc, 500 g/ha was 100%. Further, in the experiment on Spodoptera frugiperda, the mortality at 100 g/ha was determined as 100% and the mortality at 500 g/ha came out at 100%. The pest or weed control at 5 µg/cm2 in experiment [1] amounted to 80%. Moreover, the pest or weed control at 5 µg/cm2, 5 µg/cm2 in the experiment with Rhipicephalus sanguineus turned out to be 100%. Besides, in the experiment with Boophilus microplus, the pest or weed control at 0.004 mg was 100% and the pest or weed control at 0.02 mg was determined as 100%. Also, in the experiment with Ctenocephalides felis [3], the mortality at 100 ppm came to 100%. Also, in the experiment on Ctenocephalides felis [4], the pest or weed control at 5 µg/cm2, 5 µg/cm2 came out at 100%.

`Cc1cnc(-n2ncnc2[C@H](C)Nc2nc3cc(C(F)(F)F)c(Cl)cc3o2)nc1` [Example I-060, 6-Chlor-N-{(1S)-1-[1-(5-methylpyrimidin-2-yl)-1H-1,2,4-triazol-5-yl]ethyl}-5-(trifluormethyl)-1,3-benzoxazol-2-amin] gave a mortality at 4 ppm with Myzus persicae of 90%. Besides, the pest or weed control at 100 g/ha in the experiment with Diabrotica balteata stood at 100%. In addition, in the experiment on Spodoptera frugiperda, the mortality at 100 g/ha turned out to be 83%. For the same molecule, in experiment [1], the pest or weed control at 5 µg/cm2 came out at 100%. The pest or weed control at 5 µg/cm2, 5 µg/cm2 in the experiment with Rhipicephalus sanguineus was determined as 80%; in the experiment with Ctenocephalides felis [4], 100%.

In the case of `C[C@H](Nc1nc2cc(OC(F)(F)F)c(Cl)cc2o1)c1ncnn1-c1ncccn1` [Example I-082, 6-Chlor-N-{(1S)-1-[1-(pyrimidin-2-yl)-1H-1,2,4-triazol-5-yl]ethyl}-5-(trifluormethoxy)-1,3-benzoxazol-2-amin], the mortality at 4 ppm with Myzus persicae amounted to 100%. In addition, the pest or weed control at 100 g/ha in the experiment on Diabrotica balteata was determined as 100%. The mortality at 100 g/ha in the experiment on Spodoptera frugiperda was 100%. In addition, the pest or weed control at 5 µg/cm2 in experiment [1] was found to be 100%. Also, the pest or weed control at 5 µg/cm2, 5 µg/cm2 in the experiment on Rhipicephalus sanguineus and with Ctenocephalides felis [4] was 100% in each case.

As for `Cc1nc([C@H](C)Nc2nc3cc(Cl)cc(C(F)(F)F)c3o2)n(-c2ccc(C(F)(F)F)cn2)n1` [Example I-086, 5-Chlor-N-[(1S)-1-{3-methyl-1-[5-(trifluormethyl)pyridin-2-yl]-1H-1,2,4-triazol-5-yl}ethyl]-7-(trifluormethyl)-1,3-benzoxazol-2-amin], the mortality at 4 ppm in the experiment on Myzus persicae was found to be 90%. The pest or weed control at 5 µg/cm2 in [1] amounted to 90%.

`C[C@H](Nc1nc2cc(C(F)(F)F)c(Cl)cn2n1)c1ncnn1-c1ncccn1` [Example I-096, 6-chloro-N-{(1S)-1-[1-(pyrimidin-2-yl)-1H-1,2,4-triazol-5-yl]ethyl}-7-(trifluoromethyl)[1,2,4]triazolo[1,5-a]pyridin-2-amine]: the pest or weed control at 5 µg/cm2 in experiment [1] amounted to 90%. Further, the pest or weed control at 5 µg/cm2, 5 µg/cm2 in the experiment with Rhipicephalus sanguineus and with Ctenocephalides felis [4] was 100% in each case. In addition, in the experiment on Ctenocephalides felis [3], the mortality at 100 ppm came out at 100%.

With `C[C@H](Nc1nc2cc(C(F)(F)F)c(Cl)cc2o1)c1nc(C2CC2)nn1-c1ccc(C#N)cn1` [Example I-100, 6-{5-[(1S)-1-{[6-chloro-5-(trifluoromethyl)-1,3-benzoxazol-2-yl]amino}ethyl]-3-cyclopropyl-1H-1,2,4-triazol-1-yl}pyridine-3-carbonitrile], in the experiment on Myzus persicae, the mortality at 4 ppm is 90%. Also, the pest or weed control at 100 g/ha in the experiment with Diabrotica balteata is 100%. Further, the mortality at 100 g/ha with Spodoptera frugiperda was 100%.

(Values after patent US12384769B2, “Heteroaryl-substituted aminoalkyl azole compounds as pesticides” (Elanco Animal Health GmbH, priority 2019, dated 2025).)
